Results reported in the NIST ThermoML archive (doi:10.1016/j.jct.2009.04.009).

Details: Liquid

CC(C)CO [2-methyl-1-propanol]
Recirculating still
Details	vapor or sublimation pressure [kPa]
336.9 K	15
351.2 K	30
357.7 K	40
362.9 K	50
367.4 K	60
371.3 K	70
374.7 K	80
377.8 K	90
380.7 K	100
383.3 K	110
385.8 K	120
388 K	130
390.2 K	140
392.2 K	150

CC(C)CCO [3-methylbutan-1-ol]
Recirculating Still
Details	vapor or sublimation pressure [kPa]
357.5 K	15
367.2 K	23.5
374.4 K	32
380.1 K	40.5
384.8 K	49
389.1 K	57.5
392.8 K	66
402 K	91.5
407 K	108.5
409.3 K	117
411.4 K	125.5
413.5 K	134
415.4 K	142.5
417.3 K	151
419.2 K	159.5
420.9 K	168
422.4 K	176.5
